Results taken from patent EP1656945A1, “Pharmaceutical composition comprising oligoarginine” (THE BOARD OF TRUSTEES OF THE LELAND STANFORD JUNIOR …, priority 1999, dated 2006).

Legend:
[1] = test system: cytokine-stimulated VSMC; experiment: Effect of arginine oligomers on NO production (NO2, Griess reaction) in cytokine-stimulated VSMC; format: cell-based, rat
Protocol: (§1) Rat VSMCs were prepared from the media layer of thoracic aorta of Sprague-Dawley rats by the explant method. The cells were cultured in Dulbecco's modified Eagle's medium (DMEM, Gibco BRL, Gaithersburg, MD) containing 10% fetal calf serum, 100U/ml penicillin and 100µg/ml streptomycin at 37°C under a humidified atmosphere containing 5% CO2. After subconfluent growth, cells were cultured with MEM Select Amine Kit (Gibco BRL, Gaithersburg, MD) to be treated by specific concentrations of extracellular free L-arginine. Experiments were performed using cultured cells at passage levels of 5-10.
Extracellular NO production was measured as its stable oxidative metabolite, nitrite (NO2). At the end of each incubation, samples of the medium (80µl) were collected, and NO2 measurement was performed using the Griess reaction facilitated by a commercial colorimetric assay (Cayman Chemical, Ann Arbor, MI). Values of NO2 production were corrected with relative cell count assessed by a cell proliferation kit II (XTT) (Boeheringer Mannheim, Germany).
Subconfluent cells were pre-incubated with medium containing 100µM arginine for 24 hours. […] After translocation, the cells were incubated with a mixture of IFN-γ (100U/ml) and LPS (100µg/ml) in medium containing 100µM L-arginine for another 24 hours. In some experiments, L-NMMA (1mM), a nitric oxide synthase inhibitor, was added to the medium.

[2] = test system: rat VSMC; experiment: Stimulation of VSMC with interferon-γ and LPS, dependence of NO2 production on cytokine and L-arginine; format: cell-based; settings: extracellular L-arginine over the range of 0 to 10mM, IFN-γ (100U/ml) and LPS (100µg/ml) 24 hours
Protocol: as §1
Extracellular NO production was measured as its stable oxidative metabolite, nitrite (NO2). […] Values of NO2 production were corrected with relative cell count assessed by a cell proliferation kit II (XTT) (Boeheringer Mannheim, Germany).
Cells were plated at a density of 5 × 10^3 per well into 96-well plates. […] After 24 hours of incubation, the cells were then treated with a mixture of IFN-γ (100U/ml) and LPS (100µg/ml) in the medium containing the same dose of L-arginine for another 24 hours, and nitrite (NO2) accumulation in the culture medium was quantified.
No detectable NO2 was measured in the medium of non-stimulated VSMC. When cells were stimulated with a mixture of IFN-γ (100U/ml) and LPS ([…]), a significant amount of NO2 was detected in the medium (14.7 ± 0.3 µM / 10^5 cells / 24 hours). […]

[3] = test system: rabbit carotid artery segment; experiment: Ex vivo translocation of biotin-labeled peptides into carotid artery segments; set-up: species or system New Zealand white rabbits; settings: reincubated in DMEM with 10% FBS; for positive staining (internalized biotin): day 5 after exposure (10.0 µM, 30 minutes)
Protocol: After incubation with biotin labeled oligomer, vascular segments were washed, then frozen in OCT compound (Miles Scientific). Frozen sections, 5 µm thick, were fixed with acetone for 10 minutes. Internalized biotin was detected using the staining procedure described in Example 2. Methyl green was used for nuclear counter staining.
To quantify the efficiency of nuclear translocation, the numbers of both DAB positive nuclei and total nuclei were counted in the intima and media separately at X400 magnification with a video image analysis system (Automatrix). The frequency of nuclear translocation was expressed as the percent staining of nuclei, defined as the ratio of the number of DAB positive nuclei to that of all nuclei, in the intima and media. Each protocol was repeated 4 times.
Both carotid artery and jugular vein segments of male New Zealand white rabbits were used. To test the dose dependence of R7 translocation, vascular segments were incubated for 30 minutes with either bL-R7 or bD-R7 solution (0.1, 1.0, and 10.0 µM) in serum-free Dulbecco's minimal essential medium (DMEM) (Gibco BRL). To test the incubation time dependence, vascular segments were incubated with 10.0 µM of biotin labeled R7 solution for 10 seconds, 60 seconds, 5 minutes, 10 minutes, and 30 minutes. Furthermore, to determine the ability of R7 to penetrate through the vessel wall, vascular segments were ligated one end, R7 containing medium was instilled, and the other end ligated so as to expose only the luminal surface to R7. The luminal surface of the vascular segment was exposed to bL-R7 or bD-R7 (10.0 µM) for 30 minutes. To test the temperature dependence of translocation, vascular segments were incubated with 10.0 µM of biotin labeled R7 solutions at 37°C or 4°C. To determine the disappearance time course of translocated R7. vascular segments were incubated with biotin labeled R7 solutions (10.0 µM) at 37°C for 30 minutes, and then reincubated in DMEM with 10% FBS up to 5 days. Vascular segments were harvested at 1, 2 and 5 days after initial incubation.

[4] = test system: human umbilical vein endothelial cells (ECV304); experiment: In vitro translocation of biotin-labeled peptides into endothelial cells; format: cell-based; settings: control treatments, 30 minutes incubation (peptides 0.1, 1.0, and 10.0 µM)
Protocol: In the studies described below, transmembrane transport and cellular uptake of oligomers was assessed by incubating cells or tissue with biotin-oligomer conjugates, followed by treatment with horseradish peroxidase (HRP)-conjugated streptavidin and subsequent incubation with DAB (3,3'-diaminobenzidine), a substrate of the enzyme which produces a highly colored product.
Spontaneously transformed human umbilical vein endothelial cells (ECV304, ATCC) were cultured in medium M199 (Irvine Scientific) containing 10% fetal bovine serum (FBS), 100 IU/ml penicillin and 100 µg/ml of streptomycin (Gibco BRL). Confluent cells were washed and placed in serum-free medium. After 2 hours, the cells were incubated in presence of biotin labeled peptides, as bL-R7, or bD-R7, or bL-K7 (0.1, 1.0, and 10.0 µM). After 30 minutes of incubation, cells were washed 3 times with phosphate-buffered saline (PBS), fixed in ethanol/acetone; washed in PBS; incubated for 30 minutes with peroxidase suppressor (ImmunoPure, Pierce) to block endogenous peroxidase activity; and then incubated with 5 µg/ml of horse-radish peroxidase (HRP) conjugated strepavidin (Pierce) for 30 minutes. Substrate of HRP, diaminobenzidine (DAB, Sigma), was added to the cells. The reaction was terminated by washing in distilled water after a 60-second incubation. This experiment was repeated 3 times.

Structure (SMILES): N=C(N)NCCC[C@H](N)C(=O)O [L-arginine]
- NO biosynthesis ([1]; 1 mM for 5 minutes (data not shown)): did not significantly increase NO biosynthesis
- elevation of NO production ([1]; high concentrations, up to 1mM): not observed
- NO2 synthesis by cytokine stimulated VSMC [2]: progressive increase in NO2 synthesis

Structure (SMILES): N=C(N)NCCC[C@@H](NC(=O)[C@@H](CCCNC(=N)N)NC(=O)[C@@H](CCCNC(=N)N)NC(=O)[C@@H](CCCNC(=N)N)NC(=O)[C@@H](CCCNC(=N)N)NC(=O)[C@@H](CCCNC(=N)N)NC(=O)[C@@H](CCCNC(=N)N)NC(=O)CCCC[C@@H]1SC[C@@H]2NC(=O)N[C@@H]21)C(=O)O [bD-r7]
- positive staining (internalized biotin) [3]: No significant positive staining was observed
- residual nuclear biotin in endothelial and medial cells ([3]; days 1 and 2 after exposure (10.0 µM, 30 minutes)): greater in vascular segments treated with bD-r7 than those treated with bL-R7

Structure (SMILES): N=C(N)NCCC[C@H](NC(=O)[C@H](CCCNC(=N)N)NC(=O)[C@H](CCCNC(=N)N)NC(=O)[C@H](CCCNC(=N)N)NC(=O)[C@H](CCCNC(=N)N)NC(=O)[C@H](CCCNC(=N)N)NC(=O)[C@H](CCCNC(=N)N)NC(=O)CCCC[C@@H]1SC[C@@H]2NC(=O)N[C@@H]21)C(=O)O [bR7, biotin-labeled heptaarginine]
- positive staining (internalized biotin) [3]: No significant positive staining was observed

Structure (SMILES): O=C(O)CCCC[C@@H]1SC[C@@H]2NC(=O)N[C@@H]21 [biotin]
- internalized biotin signals [4]: No internalized biotin signals were detected
